The text below walks through data of patent US5196445A, “Heteroaryl-3-oxo-propanenitrile derivatives useful in the treatment of rheumatoid arthritis and other autoimmune diseases” (Farmitalia Carlo Erba Srl, priority 1989, dated 1993).

Data set [1] can be described thus: approximate acute toxicity (LD50) in the mouse, per os, single administration of increasing doses. As to conditions: in vivo, po, measured on the seventh day after treatment. From the text: In view of their high biological activity and low toxicity the compounds of the invention can be safely used in medicine. For example, the approximate acute toxicity (LD50) in the mouse of the compounds 2-cyano-3-(1,4-dihydro-1-phenyl-[1]-benzopyrano[4,3-c]pyrazol-3-yl)-3-oxo- N-phenyl-propanamide, and 2-cyano-3-(1,4-dihydro-1-phenyl-[1]-benzothiopyrano[4,3-c]pyrazol-3-yl)-3- oxo-N-phenyl-propanamide, determined per os with single administration of increasing doses and measured on the seventh day after the day of treatment, is higher than 800 mg/kg. Analogous toxocity data have been found for the other compounds of the invention.

In data set [2] the test system is adjuvant arthritis in rats. In words: Mycobacterium smegmatis induced adjuvant arthritis in rats (contralateral/left hind paw oedema, systemic phase). The format is in vivo, male Lewis rats. As to conditions: 10 mg/kg i.p.; for inhibition in vivo at 10 mg/kg: Mycolicibacterium smegmatis, ip, left hind paw oedema; for Oedema volume ± S.E., day 18 / Oedema volume ± S.E., day 21 / Oedema volume ± S.E., day 25: left hind paw, systemic phase. As for the experimental part:
Mycobacterium smegmatis induced adjuvant arthritis in rats Adjuvant arthritis is induced in groups of 10-30 male Lewis rats, weighing 150 g, by injecting 75 μg of M. smegmatis in 50 μl of mineral oil into the plantar surface of the right hind foot pad. The test compounds are administered at 10 mg/kg i.p.), 5 days a week for 4 weeks, starting on the same day of the mycobacterium injection. The volume of the controlateral (systematic phase) hind foot pad is measured pletismographically on days 18, 21 and 25.

Where [3] appears, read: 432 h, Table 1, day 18, read-out: % inhibition vs. controls, day 18.
[4] abbreviates: 504 h, Table 1, day 21, read-out: % inhibition vs. controls, day 21.
Setting [5] is: 600 h, Table 1, day 25, read-out: % inhibition vs. controls, day 25.
Setting [6] is: 432 h, Table 2, day 18, read-out: % inhibition vs. controls, day 18.
Setting [7] is: 504 h, Table 2, day 21, read-out: % inhibition vs. controls, day 21.
Setting [8] is: 600 h, Table 2, day 25, read-out: % inhibition vs. controls, day 25.

The structures appear in SMILES notation. Like-named read-outs stand apart in the source and are kept apart here.

In data set [1], `N#CC(C(=O)Nc1ccccc1)C(=O)c1nn(-c2ccccc2)c2c1CSc1ccccc1-2` (centres unmarked) [FCE 24578, 2-cyano-3-(1,4-dihydro-1-phenyl-[1]-benzothiopyrano[4,3-c]pyrazol-3-yl)-3-oxo-N-phenyl-propanamide] yielded an LD50 at 168 h of more than 800 mg/kg. The inhibition in vivo at 10 mg/kg in data set [2] (setting [3]) amounted to 75%; in data set [2] (setting [4]), 65%; in data set [2] (setting [5]), 68%. Also, in data set [2] (Table 1, day 18), the “Oedema volume ± S.E., day 18” value worked out at 310 ± 180 mm^3. Besides, the “Oedema volume ± S.E., day 21” value in data set [2] (Table 1, day 21) was determined as 470 ± 215 mm^3. Besides, in data set [2] (Table 1, day 25), the “Oedema volume ± S.E., day 25” value came to 460 ± 241 mm^3.
With `N#CC(C(=O)Nc1ccccc1)C(=O)c1nn(-c2ccccc2)c2c1COc1ccccc1-2` (centres unmarked) [FCE 25158, 2-cyano-3-(1,4-dihydro-1-phenyl-[1]-benzopyrano[4,3-c]pyrazol-3-yl)-3-oxo-N-phenyl-propanamide], in data set [1], the median lethal dose (LD50) at 168 h is more than 800 mg/kg. For the same compound, the inhibition in vivo at 10 mg/kg stood at 30% in data set [2] (setting [6]), 38% in data set [2] (setting [7]) and 41% in data set [2] (setting [8]). Further, the “Oedema volume ± S.E., day 18” value in data set [2] (Table 2, day 18) came out at 700 ± 198 mm^3. Moreover, the “Oedema volume ± S.E., day 21” value in data set [2] (Table 2, day 21) worked out at 683 ± 174 mm^3. Also, the “Oedema volume ± S.E., day 25” value in data set [2] (Table 2, day 25) worked out at 717 ± 182 mm^3.
As to `N#CC(C(=O)Nc1ccccc1)C(=O)c1nn(-c2ccccc2)c2c1CCc1ccccc1-2` (centres unmarked) [FCE 25161, 2-cyano-3-(4,5-dihydro-1-phenyl-[1]-benz[g]indazol-3-yl)-3-oxo-N-phenyl-propanamide], the values for the inhibition in vivo at 10 mg/kg in data set [2] (setting [3]), in data set [2] (setting [4]) and in data set [2] (setting [5]) were 50%, 49% and 49%, respectively. Further, the “Oedema volume ± S.E., day 18” value in data set [2] (Table 1, day 18) was found to be 665 ± 91 mm^3. In addition, the “Oedema volume ± S.E., day 21” value in data set [2] (Table 1, day 21) is 675 ± 96 mm^3. The “Oedema volume ± S.E., day 25” value in data set [2] (Table 1, day 25) amounted to 685 ± 93 mm^3.
As to `N#CC(C(=O)Nc1ccccc1)C(=O)c1nn(-c2ccccc2)c2c1Cc1ccccc1-2` (centres unmarked) [FCE 25276, 2-cyano-3-(1,4-dihydro-1-phenyl-indeno[1,2-c]pyrazol-3-yl)-3-oxo-N-phenyl-propanamide], the inhibition in vivo at 10 mg/kg in data set [2] (setting [6]) was 41%; in data set [2] (setting [7]), 47%; in data set [2] (setting [8]), 58%. In data set [2] (Table 2, day 18), the “Oedema volume ± S.E., day 18” value is given as 587 ± 233 mm^3. The “Oedema volume ± S.E., day 21” value in data set [2] (Table 2, day 21) is 587 ± 254 mm^3. In addition, in data set [2] (Table 2, day 25), the “Oedema volume ± S.E., day 25” value was 512 ± 304 mm^3.
As for `N#CC(C(=O)NCc1ccccc1)C(=O)c1nn(-c2ccccc2)c2c1CSc1ccccc1-2` (centres unmarked) [FCE 25324, N-benzyl-2-cyano-3-(1,4-dihydro-1-phenyl-[1]-benzothiopyrano [4,3-c]pyrazol-3-yl)-3-oxo-propanamide], the inhibition in vivo at 10 mg/kg in data set [2] (setting [3]) was 51%; in data set [2] (setting [4]), 57%; in data set [2] (setting [5]), 60%. The “Oedema volume ± S.E., day 18” value in data set [2] (Table 1, day 18) is 565 ± 72 mm^3. The “Oedema volume ± S.E., day 21” value in data set [2] (Table 1, day 21) turned out to be 575 ± 97 mm^3. In addition, in data set [2] (Table 1, day 25), the “Oedema volume ± S.E., day 25” value is listed as 545 ± 78 mm^3.
With `N#CC(C(=O)Nc1ccc(F)cc1)C(=O)c1nn(-c2ccc(F)cc2)c2c1Cc1ccccc1-2` (centres unmarked) [FCE 26317, 2-cyano-N-(4-fluoro-phenyl)-3-[1-(4-fluoro-phenyl)-1,4-dihydro-indeno[1,2-c]pyrazol-3-yl]-3-oxo-propanamide], the inhibition in vivo at 10 mg/kg in data set [2] (setting [6]) amounted to 37%; in data set [2] (setting [7]) it was 38%; in data set [2] (setting [8]) it was 44%. The “Oedema volume ± S.E., day 18” value in data set [2] (Table 2, day 18) was determined as 629 ± 347 mm^3. Besides, the “Oedema volume ± S.E., day 21” value in data set [2] (Table 2, day 21) amounted to 686 ± 393 mm^3. The “Oedema volume ± S.E., day 25” value in data set [2] (Table 2, day 25) stood at 683 ± 417 mm^3.
With `N#CC(C(=O)Nc1ccccc1)C(=O)c1nn(-c2ccccc2)c2c1Cc1c(CN3CCOCC3)cccc1-2` (centres unmarked) [FCE 26626, 2-cyano-3-(1,4-dihydro-5-morpholinomethyl-1-phenyl-indeno[1,2-c]pyrazol-3-yl)-3-oxo-N-phenyl-propanamide], the inhibition in vivo at 10 mg/kg in data set [2] (setting [6]) amounted to 57%; in data set [2] (setting [7]) it was 47%; in data set [2] (setting [8]), 54%. The “Oedema volume ± S.E., day 18” value in data set [2] (Table 2, day 18) was found to be 425 ± 173 mm^3. The “Oedema volume ± S.E., day 21” value in data set [2] (Table 2, day 21) is on record as 587 ± 222 mm^3. Moreover, in data set [2] (Table 2, day 25), the “Oedema volume ± S.E., day 25” value worked out at 562 ± 234 mm^3.
`CC(C)(C)OC(=O)c1cccc2c1SCc1c(C(=O)C(C#N)C(=O)Nc3ccccc3)nn(-c3ccccc3)c1-2` (centres unmarked) [FCE 26674, 3-(6-tert-butoxycarbonyl-1,4-dihydro-1-phenyl-[1]-benzothiopyrano[4,3-c]pyrazol-3-yl)-2-cyano-3-oxo-N-phenyl-propanamide]: the inhibition in vivo at 10 mg/kg was determined as 24% in data set [2] (setting [6]), 40% in data set [2] (setting [7]) and 34% in data set [2] (setting [8]). Moreover, the “Oedema volume ± S.E., day 18” value in data set [2] (Table 2, day 18) came to 757 ± 209 mm^3. Further, the “Oedema volume ± S.E., day 21” value in data set [2] (Table 2, day 21) came to 662 ± 182 mm^3. Besides, in data set [2] (Table 2, day 25), the “Oedema volume ± S.E., day 25” value is 812 ± 226 mm^3.
In the case of `N#CC(C(=O)Nc1ccccc1)C(=O)c1nn(-c2ccccc2)c2c1Cc1ccc(F)cc1-2` (centres unmarked) [FCE 26676, 2-cyano-3-(7-fluoro-1,4-dihydro-1-phenyl-indeno[1,2-c]pyrazol-3-yl)-3-oxo-N-phenyl-propanamide], the inhibition in vivo at 10 mg/kg in data set [2] (setting [6]) stood at 65%; in data set [2] (setting [7]), 54%; in data set [2] (setting [8]), 50%. The “Oedema volume ± S.E., day 18” value in data set [2] (Table 2, day 18) is on record as 350 ± 127 mm^3. Moreover, the “Oedema volume ± S.E., day 21” value in data set [2] (Table 2, day 21) amounted to 512 ± 203 mm^3. Also, in data set [2] (Table 2, day 25), the “Oedema volume ± S.E., day 25” value came to 612 ± 225 mm^3.

By LD50 is commonly meant the dose expected to kill half of the subjects tested. Lower therefore signals a more toxic substance.
